Data taken from ChEMBL document CHEMBL1131228, “Molecular modeling of phenothiazines and related drugs as multidrug resistance modifiers: a comparative molecular field analysis study” (1998).

The compounds below were run on MCF7-DOX (assay: Anti MDR activity was expressed as MDR ratio or MDR fold reversal in doxorubicin resistant human breast carcinoma tumor cell line MCF-7/DOX).
Type: functional
`CCN(CC)CCC=C1c2ccccc2Sc2ccc(Cl)cc21` was tested, and the MDR ratio was 7.2. Compound `CN(C)CC=C1c2ccccc2Sc2ccc(Cl)cc21` has an MDR ratio of 1.3. `Clc1ccc2c(c1)C(=CCCN1CCCCC1)c1ccccc1S2` gave an MDR ratio of 15. Work on `CN(C)CCC=C1c2ccccc2Sc2ccc(C(F)(F)F)cc21` yielded an MDR ratio of 2.8. For `CN(C)CCCN1c2cc(O)ccc2Sc2cc(O)c(Cl)cc21`, the MDR ratio was 0.9. With `OCCN1CCN(CCCC2c3ccccc3Sc3ccc(Cl)cc32)CC1` (configuration not stated) the MDR ratio was 9.7. Compound `CN(C)CCCN1c2cc(Cl)ccc2Sc2cc(O)c(O)cc21` has an MDR ratio of 0.8. For `CN(C)CCCN1c2ccccc2Sc2c(Cl)cccc21`, the MDR ratio was 1.4. With `OCCN1CCN(C/C=C2/c3ccccc3Sc3ccc(Cl)cc32)CC1` the MDR ratio was 1.6. With `CN(C)CCCN1c2ccccc2Sc2cccc(Cl)c21` the MDR ratio was 1.3. For `Clc1ccc2c(c1)/C(=C\CCN1CCCCC1)c1ccccc1S2`, the MDR ratio was 6.7. `CN(C)CCCN1c2ccccc2Sc2cc(Cl)ccc21` was tested, and the MDR ratio was 1.3. `CCN(CC)CC/C=C1/c2ccccc2Sc2ccc(Cl)cc21` gave an MDR ratio of 4. `CN(C)C/C=C1/c2ccccc2Sc2ccc(Cl)cc21` was tested, and the MDR ratio was 1.1. Compound `CN(C)CCCCN1c2ccccc2Sc2ccc(Cl)cc21` has an MDR ratio of 2. With `CSc1ccc2c(c1)N(CCCN(C)C)c1ccccc1S2` the MDR ratio was 1.5. With `CN(C)CC/C=C1/c2ccccc2Sc2ccc(C(F)(F)F)cc21` the MDR ratio was 1.8. Work on `CN(C)CCC=C1c2ccccc2Sc2ccc(Cl)cc21` yielded an MDR ratio of 7. Compound `OCCN1CCN(CC/C=C2/c3ccccc3Sc3ccc(Cl)cc32)CC1` (stereo in doubt; 34) [ZUCLOPENTHIXOL] has an MDR ratio of 2.6. Work on `OCCN1CCN(CC/C=C2/c3ccccc3Sc3ccc(Cl)cc32)CC1` (stereo in doubt; 35) [ZUCLOPENTHIXOL] yielded an MDR ratio of 15. Work on `CN(C)CCCN1c2ccc(O)cc2Sc2ccc(Cl)cc21` [7-HYDROXYCHLORPROMAZINE] yielded an MDR ratio of 1. `CN(C)CCCN1c2ccccc2[S+]([O-])c2ccc(Cl)cc21` (configuration not stated) [CHLOROPROMAZINE SULFOXIDE] gave an MDR ratio of 2.2. With `CCN(CC)CCCN1c2ccccc2Sc2ccc(Cl)cc21` [CHLORPROETHAZINE] the MDR ratio was 2.2. `CN(C)CCCN1c2ccccc2Sc2ccc(Cl)cc21` [CHLORPROMAZINE] showed an MDR ratio of 1.6. With `CN(C)CC/C=C1/c2ccccc2Sc2ccc(Cl)cc21` [CHLORPROTHIXENE] the MDR ratio was 2. `CN(C)CCN1c2ccccc2Sc2ccc(Cl)cc21` [CHOLRPHENETHAZINE] showed an MDR ratio of 1.5. In the case of `OCCN1CCN(CCCN2c3ccccc3Sc3ccc(C(F)(F)F)cc32)CC1` [FLUPHENAZINE], the MDR ratio is reported as 2.7. Compound `CN(C)CCCN1c2ccccc2CCc2ccccc21` [IMIPRAMINE] has an MDR ratio of 2.5. With `CNCCCN1c2ccccc2Sc2ccc(Cl)cc21` [NOR1-CHLORPROMAZINE] the MDR ratio was 1.2. `NCCCN1c2ccccc2Sc2ccc(Cl)cc21` [NOR2-CHLORPROMAZINE] showed an MDR ratio of 1.1. `OCCN1CCN(CCCN2c3ccccc3Sc3ccc(Cl)cc32)CC1` [PERPHENAZINE] showed an MDR ratio of 2. With `CN(C)CCCN1c2ccccc2Sc2ccccc21` [PROMAZINE] the MDR ratio was 1.2. Work on `CC(CN1c2ccccc2Sc2ccccc21)N(C)C` (configuration not stated) [PROMETHAZINE] yielded an MDR ratio of 1.9. With `CCN(CC)CCCC(C)Nc1c2ccc(Cl)cc2nc2ccc(OC)cc12` (configuration not stated) [QUINACRINE] the MDR ratio was 1.3. Work on `CN1CCN(CCCN2c3ccccc3Sc3ccc(C(F)(F)F)cc32)CC1` [TRIFLUOPERAZINE] yielded an MDR ratio of 3.4. Work on `OCCN1CCN(CC/C=C2/c3ccccc3Sc3ccc(C(F)(F)F)cc32)CC1` [Z-FLUPENTIXOL] yielded an MDR ratio of 15.2. In the case of FLUPENTIXOL, the MDR ratio is reported as 4.8.
